Test results from paper PMC7425875, “Identification of peptides interfering with the LRRK2/PP1 interaction” (PLoS ONE, 2020).
No end group written: not given here.

Experiments:
[1] = Analysis of peptide integrity in human serum (MALDI-TOF MS); assay type: in vitro ADME; details: 37°C, different periods of time, mass spectrometry
Method: Peptides were incubated at 37°C in 250 μl of human serum (Sigma Aldrich) for different periods of time. Samples were collected and peptide degradation stopped by freezing. Peptides were extracted from samples using the Proteo Miner Protein Enrichment System (Bio-Rad). Percentage of intact peptide was estimated by mass spectrometry (MS) using MALDI-TOFF as described previously[19] (Bruker Autoflex II) following their protocol. Measurements were performed in triplicate. MS data were analysed using the software Cliprot tools, Felx analysis, Bruker.

LRRK2/PP1 interaction = target: T1, LRRK2/PP1 interaction (Homo sapiens, UniProt P62136); test: In vitro competition of LRRK2/PP1 interaction in anti-PP1 immunoprecipitates (western blot); assay type: binding; details: 1 mM peptide, 30 min room temperature, MDA-MB231 lysates
T1 construct: MDA-MB231 cells were lysed and cytoplasmic extracts immunoprecipitated with anti-PP1 antibody (Santa Cruz); endogenous in cells; host or cells: MDA-MB231
T1 sequence (P62136 whole entry): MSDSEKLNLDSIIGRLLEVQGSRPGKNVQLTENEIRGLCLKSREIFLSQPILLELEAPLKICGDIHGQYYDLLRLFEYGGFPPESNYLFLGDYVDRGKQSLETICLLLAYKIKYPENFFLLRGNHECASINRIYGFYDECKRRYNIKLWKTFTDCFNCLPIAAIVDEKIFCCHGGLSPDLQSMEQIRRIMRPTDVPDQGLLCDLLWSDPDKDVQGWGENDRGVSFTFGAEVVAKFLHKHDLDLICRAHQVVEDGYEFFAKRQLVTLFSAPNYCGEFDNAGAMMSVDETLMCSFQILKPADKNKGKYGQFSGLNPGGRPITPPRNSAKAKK
Method: The protocol was previously described. Briefly, cells (5x10^6) were lysed for 20 min at 4°C in lysis buffer (50 mM Tris pH8, 1% NP40, 137 mM NaCl, 1 mM MgCl2, 1 mM CaCl2, 10% glycerol and protease inhibitor mixture Sigma Aldrich). Lysates (500 μg) were immunoprecipitated with the appropriated antibody overnight at 4°C and protein A/G Sepharose (Santa Cruz) was added for 1h at 4°C. After washing with 1x TBST (20 mM Tris-HCl pH7.5, 150 mM NaCl, 0.05% Tween 20), the PP1/LRRK2 interaction was competed using 1 mM of the Mut3DPT-LRRK2-Long or Mut3DPT-LRRK2-Shor peptide for 30 min at room temperature. After several washing steps, immunoprecipitates were separated by SDS-PAGE, transferred to nitrocellulose and blotted with anti PP1 antibody (Santa Cruz or Thermo Fisher 1:500 dilution). The membrane was washed and incubated with PO-conjugates secondary antibody (Dako, 1:1000 dilution). Protein detection was performed using the ECL system (Bio-Rad). As internal control, the blot was also hybridized with anti-LRRK2 antibody (Abcam, ab133474, 1;500 dilution). Western blots were densitometred using Image J. Statistic analysis were done using Anova.

Resistance to degradation by proteases in human serum [1]	Competition of LRRK2/PP1 interaction (LRRK2 detected in anti-PP1 immunoprecipitates) (LRRK2/PP1 interaction)	Sequence
only very limited degradation	–	THRPPMWSPVWPGFWSRLINRLLEI [BBB-LRRK2-Short]
only very limited degradation	–	THRPPMWSPVWPPMGFWSRLINRLLEISPY [BBB-LRRK2-Long]
–	LRRK2 was detected	VKKKKIKAEIKI [Mut3DPT, Optimized cell penetrating peptide (shuttle alone), derived from DPT-Sh1]
